Read-outs that look alike come from different tables or passages of the source.
Test: Phase I study CXR1002-001: plasma pharmacokinetics (LC-MS/MS)
Format: in vivo, human
Settings: human, plasma, plasma; for concentration at 336 hr: 336 hr (Day 15)
Description: PK samples, PD (fasting) samples, blood glucose, and blood triglyceride samples, were taken over a 6-week period.
Dose limiting toxicity (DLT) will be based on the toxicity assessments over the first 3-week period of the repeat dosing schedule. PK samples (single blood sample) were taken on the following basis: • Every 6 weeks during the repeat dosing phase • If dosing is interrupted or stopped, samples will be taken at intervals according to patient convenience • PK sampling for safety evaluation may take place at any time, as clinically indicated
Plasma samples were collected after the single 50 mg dose at the following timepoints: Pre-dose, and then 0.25, 0.5, 0.75, 1, 1.5, 2, 3, 4, 6, 24, 48, and 72 hours after administration and then once weekly at weeks 2, 3, 4, 5, and 6 (days 8, 15, 22, 29, and 36). For patients treated with the weekly repeat dose, plasma samples were collected at the following timepoints: Pre-dose and then 2, 3, 4 and 24 hours after administration for a total of 6 weeks. Thereafter a single sample was collected every 6 weeks for monitoring of exposure during long term treatment. Plasma samples were processed at site and stored at −80° C. prior to batch shipment to the analytical laboratory.

O=C(O)C(F)(F)C(F)(F)C(F)(F)C(F)(F)C(F)(F)C(F)(F)C(F)(F)F [CXR1002]
concentration at 4 hr (oral, 1200 mg, Patient 034, 1200 mg, person, 4 hr, read-out: Concentration): 560 µM | concentration at 24 hr (oral, 1200 mg, Patient 034, 1200 mg, person, 24 hr (Day 2), read-out: Concentration): 409 µM | concentration at 168 hr (oral, 1200 mg, Patient 034, 1200 mg, person, 168 hr (Day 8), read-out: Concentration): 351 µM | concentration at 170 hr (oral, 1200 mg, Patient 034, 1200 mg, person, 170 hr, read-out: Concentration): 893 µM | concentration at 171 hr (oral, 1200 mg, Patient 034, 1200 mg, person, 171 hr, read-out: Concentration): 771 µM | concentration at 172 hr (oral, 1200 mg, Patient 034, 1200 mg, person, 172 hr, read-out: Concentration): 730 µM | concentration at 192 hr (oral, 1200 mg, Patient 034, 1200 mg, person, 192 hr (Day 9), read-out: Concentration): 722 µM | concentration at 336 hr (oral, 1200 mg, Patient 034, 1200 mg, person, read-out: Concentration): 644 µM | concentration at 338 hr (oral, 1200 mg, Patient 034, 1200 mg, person, 338 hr, read-out: Concentration): 1030 µM | concentration at 339 hr (oral, 1200 mg, Patient 034, 1200 mg, person, 339 hr, read-out: Concentration): 1120 µM | concentration at 340 hr (oral, 1200 mg, Patient 034, 1200 mg, person, 340 hr, read-out: Concentration): 955 µM | concentration at 360 hr (oral, 1200 mg, Patient 034, 1200 mg, person, 360 hr (Day 16), read-out: Concentration): 1020 µM | concentration at 504 hr (oral, 1200 mg, Patient 034, 1200 mg, person, 504 hr (Day 22), read-out: Concentration): 924 µM | concentration at 506 hr (oral, 1200 mg, Patient 034, 1200 mg, person, 506 hr, read-out: Concentration): 1350 µM | concentration at 507 hr (oral, 1200 mg, Patient 034, 1200 mg, person, 507 hr, read-out: Concentration): 1220 µM | concentration at 508 hr (oral, 1200 mg, Patient 034, 1200 mg, person, 508 hr, read-out: Concentration): 1440 µM | concentration at 528 hr (oral, 1200 mg, Patient 034, 1200 mg, person, 528 hr (Day 23), read-out: Concentration): 1360 µM | concentration at 672 hr (oral, 1200 mg, Patient 034, 1200 mg, person, 672 hr (Day 29), read-out: Concentration): 1080 µM | concentration at 674 hr (oral, 1200 mg, Patient 034, 1200 mg, person, 674 hr, read-out: Concentration): 1310 µM | concentration at 675 hr (oral, 1200 mg, Patient 034, 1200 mg, person, 675 hr, read-out: Concentration): 1450 µM | concentration at 676 hr (oral, 1200 mg, Patient 034, 1200 mg, person, 676 hr, read-out: Concentration): 1380 µM | concentration at 696 hr (oral, 1200 mg, Patient 034, 1200 mg, person, 696 hr (Day 30), read-out: Concentration): 1310 µM | concentration at 2 hr (oral, 1200 mg, Patient 035, 1200 mg, person, 2 hr, read-out: Concentration): 298 µM | concentration at 3 hr (oral, 1200 mg, Patient 035, 1200 mg, person, 3 hr, read-out: Concentration): 196 µM | concentration at 4 hr (oral, 1200 mg, Patient 035, 1200 mg, person, 4 hr, read-out: Concentration): 317 µM | concentration at 24 hr (oral, 1200 mg, Patient 035, 1200 mg, person, 24 hr (Day 2), read-out: Concentration): 261 µM | concentration at 168 h (oral, 1200 mg, Patient 035, 1200 mg, person, 168 hr (Day 8), read-out: Concentration): 254 µM | concentration at 170 h (oral, 1200 mg, Patient 035, 1200 mg, person, 170 hr, read-out: Concentration): 460 µM | concentration at 171 h (oral, 1200 mg, Patient 035, 1200 mg, person, 171 hr, read-out: Concentration): 479 µM | concentration at 172 h (oral, 1200 mg, Patient 035, 1200 mg, person, 172 hr, read-out: Concentration): 592 µM | concentration at 192 h (oral, 1200 mg, Patient 035, 1200 mg, person, 192 hr (Day 9), read-out: Concentration): 543 µM | concentration at 336 hr (oral, 1200 mg, Patient 035, 1200 mg, person, read-out: Concentration): 476 µM | concentration at 338 hr (oral, 1200 mg, Patient 035, 1200 mg, person, 338 hr, read-out: Concentration): 570 µM | concentration at 339 hr (oral, 1200 mg, Patient 035, 1200 mg, person, 339 hr, read-out: Concentration): 621 µM | concentration at 340 hr (oral, 1200 mg, Patient 035, 1200 mg, person, 340 hr, read-out: Concentration): 649 µM | concentration at 360 h (oral, 1200 mg, Patient 035, 1200 mg, person, 360 hr (Day 16), read-out: Concentration): 704 µM | concentration at 504 h (oral, 1200 mg, Patient 035, 1200 mg, person, 504 hr (Day 22), read-out: Concentration): 600 µM | concentration at 506 h (oral, 1200 mg, Patient 035, 1200 mg, person, 506 hr, read-out: Concentration): 774 µM | concentration at 507 h (oral, 1200 mg, Patient 035, 1200 mg, person, 507 hr, read-out: Concentration): 925 µM | concentration at 508 h (oral, 1200 mg, Patient 035, 1200 mg, person, 508 hr, read-out: Concentration): 1020 µM | concentration at 2 hr (po, 1000 mg, Patient 041, 1000 mg weekly oral dose, Time 2 hr, read-out: Concentration (plasma level)): 223 µM | concentration at 3 hr (po, 1000 mg, Patient 041, 1000 mg weekly oral dose, Time 3 hr, read-out: Concentration (plasma level)): 233 µM | concentration at 4 hr (po, 1000 mg, Patient 041, 1000 mg weekly oral dose, Time 4 hr, read-out: Concentration (plasma level)): 207 µM | concentration at 24 hr (po, 1000 mg, Patient 041, 1000 mg weekly oral dose, Time 24 hr (Day 2), read-out: Concentration (plasma level)): 175 µM | concentration at 168 hr (po, 1000 mg, Patient 041, 1000 mg weekly oral dose, Time 168 hr (Day 8), read-out: Concentration (plasma level)): 171 µM | concentration at 170 hr (po, 1000 mg, Patient 041, 1000 mg weekly oral dose, Time 170 hr, read-out: Concentration (plasma level)): 342 µM | concentration at 171 hr (po, 1000 mg, Patient 041, 1000 mg weekly oral dose, Time 171 hr, read-out: Concentration (plasma level)): 413 µM | concentration at 172 hr (po, 1000 mg, Patient 041, 1000 mg weekly oral dose, Time 172 hr, read-out: Concentration (plasma level)): 357 µM | concentration at 192 hr (po, 1000 mg, Patient 041, 1000 mg weekly oral dose, Time 192 hr (Day 9), read-out: Concentration (plasma level)): 396 µM | concentration at 336 h (po, 1000 mg, Patient 041, 1000 mg weekly oral dose, Time 336 hr (Day 15), read-out: Concentration (plasma level)): 294 µM | concentration at 338 hr (po, 1000 mg, Patient 041, 1000 mg weekly oral dose, Time 338 hr, read-out: Concentration (plasma level)): 411 µM | concentration at 339 hr (po, 1000 mg, Patient 041, 1000 mg weekly oral dose, Time 339 hr, read-out: Concentration (plasma level)): 485 µM | concentration at 340 hr (po, 1000 mg, Patient 041, 1000 mg weekly oral dose, Time 340 hr, read-out: Concentration (plasma level)): 478 µM | concentration at 360 hr (po, 1000 mg, Patient 041, 1000 mg weekly oral dose, Time 360 hr (Day 16), read-out: Concentration (plasma level)): 508 µM | concentration at 504 hr (po, 1000 mg, Patient 041, 1000 mg weekly oral dose, Time 504 hr (Day 22), read-out: Concentration (plasma level)): 558 µM | concentration at 506 hr (po, 1000 mg, Patient 041, 1000 mg weekly oral dose, Time 506 hr, read-out: Concentration (plasma level)): 674 µM | concentration at 507 hr (po, 1000 mg, Patient 041, 1000 mg weekly oral dose, Time 507 hr, read-out: Concentration (plasma level)): 748 µM | concentration at 508 hr (po, 1000 mg, Patient 041, 1000 mg weekly oral dose, Time 508 hr, read-out: Concentration (plasma level)): 676 µM
